According to ChEMBL document CHEMBL1671627, “Increasing trends in antimicrobial resistance among clinically important anaerobes and Bacteroides fragilis isolates causing nosocomial infections: emerging resistance to carbapenems” (2008):
In brackets after ≈: the same amount, converted by molar mass.

Assays:
Bacteroides fragilis [1] = assay: Antibacterial activity against Bacteroides fragilis by CLSI agar dilution method; type: functional
[2] = system: Bacteroides thetaiotaomicron; assay: Antibacterial activity against beta-lactamase producing Bacteroides thetaiotaomicron by CLSI agar dilution method; type: functional
[3] = system: Peptostreptococcus anaerobius; assay: Antibacterial activity against beta-lactamase producing Peptostreptococcus anaerobius assessed as resistant isolates by CLSI agar dilution method; type: functional
Clostridium septicum [4] = assay: Antibacterial activity against beta-lactamase producing Clostridium septicum assessed as resistant isolates by CLSI agar dilution method; type: functional
Phocaeicola vulgatus [5] = assay: Antibacterial activity against beta-lactamase producing Bacteroides vulgatus by CLSI agar dilution method; type: functional
Clostridium septicum [6] = assay: Antibacterial activity against beta-lactamase producing Clostridium septicum by CLSI agar dilution method; type: functional
Finegoldia magna [7] = assay: Antibacterial activity against beta-lactamase producing Finegoldia magna by CLSI agar dilution method; type: functional
Finegoldia magna [8] = assay: Antibacterial activity against beta-lactamase producing Finegoldia magna assessed as resistant isolates by CLSI agar dilution method; type: functional
Fusobacterium mortiferum [9] = assay: Antibacterial activity against Fusobacterium mortiferum assessed as resistant isolates by CLSI agar dilution method; type: functional
Prevotella intermedia [10] = assay: Antibacterial activity against Prevotella intermedia by CLSI agar dilution method; type: functional
[11] = system: Fusobacterium necrophorum; assay: Antibacterial activity against Fusobacterium necrophorum assessed as resistant isolates by CLSI agar dilution method; type: functional
[12] = system: Clostridium paraputrificum; assay: Antibacterial activity against beta-lactamase producing Clostridium paraputrificum assessed as susceptible isolates by CLSI agar dilution method; type: functional
[13] = system: Bacteroides thetaiotaomicron; assay: Antibacterial activity against beta-lactamase producing Bacteroides thetaiotaomicron assessed as susceptible isolates by CLSI agar dilution method; type: functional
[14] = system: Fusobacterium necrophorum; assay: Antibacterial activity against Fusobacterium necrophorum by CLSI agar dilution method; type: functional
Clostridium tertium [15] = assay: Antibacterial activity against beta-lactamase producing Clostridium tertium assessed as susceptible isolates by CLSI agar dilution method; type: functional
Phocaeicola vulgatus [16] = assay: Antibacterial activity against beta-lactamase producing Bacteroides vulgatus assessed as resistant isolates by CLSI agar dilution method; type: functional
[17] = system: Peptostreptococcus anaerobius; assay: Antibacterial activity against beta-lactamase producing Peptostreptococcus anaerobius by CLSI agar dilution method; type: functional
[18] = system: Prevotella melaninogenica; assay: Antibacterial activity against Prevotella melaninogenica by CLSI agar dilution method; type: functional
[19] = system: Peptoniphilus asaccharolyticus; assay: Antibacterial activity against beta-lactamase producing Peptoniphilus asaccharolyticus assessed as susceptible isolates by CLSI agar dilution method; type: functional
Phocaeicola vulgatus [20] = assay: Antibacterial activity against beta-lactamase producing Bacteroides vulgatus assessed as susceptible isolates by CLSI agar dilution method; type: functional
Prevotella intermedia [21] = assay: Antibacterial activity against Prevotella intermedia assessed as resistant isolates by CLSI agar dilution method; type: functional
Clostridium perfringens = assay: microbe, parasite or virus in culture; type: functional
Clostridium septicum [22] = assay: Antibacterial activity against beta-lactamase producing Clostridium septicum assessed as susceptible isolates by CLSI agar dilution method; type: functional
[23] = system: Bacteroides thetaiotaomicron; assay: Antibacterial activity against beta-lactamase producing Bacteroides thetaiotaomicron assessed as resistant isolates by CLSI agar dilution method; type: functional
Fusobacterium mortiferum [24] = assay: Antibacterial activity against Fusobacterium mortiferum by CLSI agar dilution method; type: functional
Bacteroides uniformis [25] = assay: Antibacterial activity against beta-lactamase producing Bacteroides uniformis by CLSI agar dilution method; type: functional
Prevotella intermedia [26] = assay: Antibacterial activity against Prevotella intermedia assessed as susceptible isolates by CLSI agar dilution method; type: functional
[27] = system: Peptoniphilus asaccharolyticus; assay: Antibacterial activity against beta-lactamase producing Peptoniphilus asaccharolyticus by CLSI agar dilution method; type: functional
[28] = system: Peptostreptococcus anaerobius; assay: Antibacterial activity against beta-lactamase producing Peptostreptococcus anaerobius assessed as susceptible isolates by CLSI agar dilution method; type: functional
Prevotella buccae [29] = assay: Antibacterial activity against Prevotella buccae assessed as resistant isolates by CLSI agar dilution method; type: functional, Segatella buccae
Parvimonas micra [30] = assay: Antibacterial activity against beta-lactamase producing Micromonas micros by CLSI agar dilution method; type: functional
Prevotella buccae [31] = assay: Antibacterial activity against Prevotella buccae by CLSI agar dilution method; type: functional; conditions: Segatella buccae
Fusobacterium varium [32] = assay: Antibacterial activity against Fusobacterium varium assessed as resistant isolates by CLSI agar dilution method; type: functional
[33] = system: Clostridium paraputrificum; assay: Antibacterial activity against beta-lactamase producing Clostridium paraputrificum assessed as resistant isolates by CLSI agar dilution method; type: functional
Fusobacterium varium [34] = assay: Antibacterial activity against Fusobacterium varium assessed as susceptible isolates by CLSI agar dilution method; type: functional
Finegoldia magna [35] = assay: Antibacterial activity against beta-lactamase producing Finegoldia magna assessed as susceptible isolates by CLSI agar dilution method; type: functional
Prevotella bivia [36] = assay: Antibacterial activity against Prevotella bivia assessed as susceptible isolates by CLSI agar dilution method; type: functional
Fusobacterium nucleatum [37] = assay: Antibacterial activity against Fusobacterium nucleatum assessed as susceptible isolates by CLSI agar dilution method; type: functional
Bacteroides fragilis [38] = assay: Antibacterial activity against Bacteroides fragilis assessed as susceptible isolates by CLSI agar dilution method; type: functional
Bacteroides caccae [39] = assay: Antibacterial activity against beta-lactamase producing Bacteroides caccae assessed as resistant isolates by CLSI agar dilution method; type: functional
[40] = system: Fusobacterium necrophorum; assay: Antibacterial activity against Fusobacterium necrophorum assessed as susceptible isolates by CLSI agar dilution method; type: functional
Prevotella bivia [41] = assay: Antibacterial activity against Prevotella bivia assessed as resistant isolates by CLSI agar dilution method; type: functional
Prevotella bivia [42] = assay: Antibacterial activity against Prevotella bivia by CLSI agar dilution method; type: functional
Clostridium tertium [43] = assay: Antibacterial activity against beta-lactamase producing Clostridium tertium by CLSI agar dilution method; type: functional
Fusobacterium varium [44] = assay: Antibacterial activity against Fusobacterium varium by CLSI agar dilution method; type: functional
[45] = system: Peptoniphilus asaccharolyticus; assay: Antibacterial activity against beta-lactamase producing Peptoniphilus asaccharolyticus assessed as resistant isolates by CLSI agar dilution method; type: functional
Bacteroides caccae [46] = assay: Antibacterial activity against beta-lactamase producing Bacteroides caccae by CLSI agar dilution method; type: functional
Parvimonas micra [47] = assay: Antibacterial activity against beta-lactamase producing Micromonas micros assessed as susceptible isolates by CLSI agar dilution method; type: functional
Bacteroides caccae [48] = assay: Antibacterial activity against beta-lactamase producing Bacteroides caccae assessed as susceptible isolates by CLSI agar dilution method; type: functional
[49] = system: Clostridium paraputrificum; assay: Antibacterial activity against beta-lactamase producing Clostridium paraputrificum by CLSI agar dilution method; type: functional
Prevotella buccae [50] = assay: Antibacterial activity against Prevotella buccae assessed as susceptible isolates by CLSI agar dilution method; type: functional, Segatella buccae
[51] = system: Prevotella melaninogenica; assay: Antibacterial activity against Prevotella melaninogenica assessed as susceptible isolates by CLSI agar dilution method; type: functional
Bacteroides uniformis [52] = assay: Antibacterial activity against beta-lactamase producing Bacteroides uniformis assessed as resistant isolates by CLSI agar dilution method; type: functional
Bacteroides uniformis [53] = assay: Antibacterial activity against beta-lactamase producing Bacteroides uniformis assessed as susceptible isolates by CLSI agar dilution method; type: functional
Fusobacterium nucleatum [54] = assay: Antibacterial activity against Fusobacterium nucleatum assessed as resistant isolates by CLSI agar dilution method; type: functional
Fusobacterium nucleatum [55] = assay: Antibacterial activity against Fusobacterium nucleatum by CLSI agar dilution method; type: functional
Fusobacterium mortiferum [56] = assay: Antibacterial activity against Fusobacterium mortiferum assessed as susceptible isolates by CLSI agar dilution method; type: functional
Veillonella parvula = assay: Antibacterial activity against Veillonella parvula by CLSI agar dilution method; type: functional
Bacteroides fragilis [57] = assay: Antibacterial activity against Bacteroides fragilis assessed as resistant isolates by CLSI agar dilution method; type: functional
Clostridium tertium [58] = assay: Antibacterial activity against beta-lactamase producing Clostridium tertium assessed as resistant isolates by CLSI agar dilution method; type: functional
[59] = system: Prevotella melaninogenica; assay: Antibacterial activity against Prevotella melaninogenica assessed as resistant isolates by CLSI agar dilution method; type: functional
Parvimonas micra [60] = assay: Antibacterial activity against beta-lactamase producing Micromonas micros assessed as resistant isolates by CLSI agar dilution method; type: functional

`C[C@@H](O)[C@H]1C(=O)N2C(C(=O)O)=C(SCCNC=N)C[C@H]12` [IMIPENEM ANHYDROUS] was tested, and the MIC50 (Bacteroides fragilis [1]) was 0.5 µg/mL (≈ 1.67 µM), the MIC90 (Bacteroides fragilis [1]) was 4 µg/mL (≈ 13.4 µM) and the MIC50 [2] was 0.5 µg/mL (≈ 1.67 µM). For the same compound, the MIC90 [2] was 4 µg/mL (≈ 13.4 µM), the Activity [3] was 0% and the Activity (Clostridium septicum [4]) was 4%. It also gave an MIC50 (Phocaeicola vulgatus [5]) of 1 µg/mL (≈ 3.34 µM), an MIC90 (Phocaeicola vulgatus [5]) of 4 µg/mL (≈ 13.4 µM) and an MIC50 (Clostridium septicum [6]) of 0.25 µg/mL (≈ 0.835 µM). For the same compound, the MIC90 (Clostridium septicum [6]) was 8 µg/mL (≈ 26.7 µM), the MIC50 (Finegoldia magna [7]) was 0.06 µg/mL (≈ 0.2 µM) and the MIC90 (Finegoldia magna [7]) was 0.5 µg/mL (≈ 1.67 µM). It also gave an Activity (Finegoldia magna [8]) of 0%, an Activity (Fusobacterium mortiferum [9]) of 4% and an MIC50 (Prevotella intermedia [10]) of 0.25 µg/mL (≈ 0.835 µM). It also gave an MIC90 (Prevotella intermedia [10]) of 0.5 µg/mL (≈ 1.67 µM), an Activity [11] of 4% and an Activity [12] of 85%. The Activity [13] was 93%, the MIC [14] was 0.01 µg/mL (≈ 0.0334 µM) and the MIC50 [14] was 0.5 µg/mL (≈ 1.67 µM). The MIC90 [14] was 4 µg/mL (≈ 13.4 µM), the Activity (Clostridium tertium [15]) was 85% and the Activity (Phocaeicola vulgatus [16]) was 4%. It also gave an MIC50 [17] of 0.06 µg/mL (≈ 0.2 µM), an MIC90 [17] of 0.5 µg/mL (≈ 1.67 µM) and an MIC50 [18] of 0.25 µg/mL (≈ 0.835 µM). For the same compound, the MIC90 [18] was 0.5 µg/mL (≈ 1.67 µM), the Activity [19] was 100% and the Activity (Phocaeicola vulgatus [20]) was 96%. The Activity (Prevotella intermedia [21]) was 6%, the MIC50 (Clostridium perfringens) was 0.25 µg/mL (≈ 0.835 µM) and the MIC90 (Clostridium perfringens) was 8 µg/mL (≈ 26.7 µM). The Activity (Clostridium septicum [22]) was 85%, the Activity [23] was 0% and the MIC (Fusobacterium mortiferum [24]) was 0.01 µg/mL (≈ 0.0334 µM). For the same compound, the MIC50 (Fusobacterium mortiferum [24]) was 0.5 µg/mL (≈ 1.67 µM), the MIC90 (Fusobacterium mortiferum [24]) was 4 µg/mL (≈ 13.4 µM) and the MIC50 (Bacteroides uniformis [25]) was 1 µg/mL (≈ 3.34 µM). The MIC90 (Bacteroides uniformis [25]) was 4 µg/mL (≈ 13.4 µM), the Activity (Prevotella intermedia [26]) was 94% and the MIC50 [27] was 0.06 µg/mL (≈ 0.2 µM). For the same compound, the MIC90 [27] was 0.5 µg/mL (≈ 1.67 µM), the Activity [28] was 100% and the Activity (Prevotella buccae [29]) was 6%. For the same compound, the MIC50 (Parvimonas micra [30]) was 0.06 µg/mL (≈ 0.2 µM), the MIC90 (Parvimonas micra [30]) was 0.5 µg/mL (≈ 1.67 µM) and the MIC50 (Prevotella buccae [31]) was 0.25 µg/mL (≈ 0.835 µM). The MIC90 (Prevotella buccae [31]) was 0.5 µg/mL (≈ 1.67 µM), the Activity (Fusobacterium varium [32]) was 4% and the Activity [33] was 4%. For the same compound, the Activity (Fusobacterium varium [34]) was 96%, the Activity (Finegoldia magna [35]) was 100% and the Activity (Prevotella bivia [36]) was 94%. It also gave an Activity (Fusobacterium nucleatum [37]) of 96%, an Activity (Bacteroides fragilis [38]) of 93% and an Activity (Bacteroides caccae [39]) of 4%. The Activity [40] was 96%, the Activity (Prevotella bivia [41]) was 6% and the MIC50 (Prevotella bivia [42]) was 0.25 µg/mL (≈ 0.835 µM). For the same compound, the MIC90 (Prevotella bivia [42]) was 0.5 µg/mL (≈ 1.67 µM), the MIC50 (Clostridium tertium [43]) was 0.25 µg/mL (≈ 0.835 µM) and the MIC90 (Clostridium tertium [43]) was 8 µg/mL (≈ 26.7 µM). It also gave an MIC (Fusobacterium varium [44]) of 0.01 µg/mL (≈ 0.0334 µM), an MIC50 (Fusobacterium varium [44]) of 0.5 µg/mL (≈ 1.67 µM) and an MIC90 (Fusobacterium varium [44]) of 4 µg/mL (≈ 13.4 µM). For the same compound, the Activity [45] was 0%, the MIC50 (Bacteroides caccae [46]) was 1 µg/mL (≈ 3.34 µM) and the MIC90 (Bacteroides caccae [46]) was 4 µg/mL (≈ 13.4 µM). For the same compound, the Activity (Parvimonas micra [47]) was 100%, the Activity (Bacteroides caccae [48]) was 96% and the MIC50 [49] was 0.25 µg/mL (≈ 0.835 µM). It also gave an MIC90 [49] of 8 µg/mL (≈ 26.7 µM), an Activity (Prevotella buccae [50]) of 94% and an Activity [51] of 94%. It also gave an Activity (Bacteroides uniformis [52]) of 4%, an Activity (Bacteroides uniformis [53]) of 96% and an Activity (Fusobacterium nucleatum [54]) of 4%. The MIC (Fusobacterium nucleatum [55]) was 0.01 µg/mL (≈ 0.0334 µM), the MIC50 (Fusobacterium nucleatum [55]) was 0.5 µg/mL (≈ 1.67 µM) and the MIC90 (Fusobacterium nucleatum [55]) was 4 µg/mL (≈ 13.4 µM). For the same compound, the Activity (Fusobacterium mortiferum [56]) was 96%, the MIC (Veillonella parvula) was 0.12 µg/mL (≈ 0.401 µM) and the Activity (Bacteroides fragilis [57]) was 3%. The Activity (Clostridium tertium [58]) was 4%, the Activity [59] was 6% and the Activity (Parvimonas micra [60]) was 0%.
